The molecules below were run against K-Ras G12C (Homo sapiens (Human), UniProt P01116, G12C) (assay: Western blot assay for in cell alkylation of K-Ras G12C (HCC1171 cells)). Settings: 18 hours at 37° C., 7 point dose response.
Format: cell-based
Protocol: HCC1171 cells were maintained in RPMI1640 supplemented with 10% FBS. Cells were plated in a 96-well plate at 20,000 cells/well and the following day compounds were added to the cells. After 18 hours at 37° C., cells were lysed in RIPA buffer (Sigma RO278) with 0.5% SDS and protease/phosphatase inhibitor cocktail. After through mixing to enable complete lysis, the lysates were cleared by centrifugation before 20 µl was transferred from each well and combined with loading buffer and reducing agent. After heating for 10 minutes at 95° C., […] of each sample was loaded onto a 4-20% Tris-Glycine gel and electrophoresed at 110V for 165 minutes in SDS-PAGE running buffer. Gels were transferred to a nitrocellulose membrane, blocked for 1 hour and stained overnight at 4° C. with primary antibody against K-Ras (polyclonal Proteintech 12063-1-AP). The membrane was then washed thoroughly and counterstained with anti-rabbit IRDye 800CW (LI-COR 926-32211) for one hour at room temperature. After final washes, the membrane was imaged on a LI-COR Odyssey CLx at medium resolution. […] To quantify this affect, the LICOR software was used to draw a rectangle over alkylated and unalkylated bands for each well and measured the total fluorescent intensity (FI) in each of these bands. The following formula was then used to calculate % alkylation: FI(alkylated)/(FI(alkylated)+FI(unalkylated))*100 for each well.
A 7 point dose response curve was used to determine the IC50 for each compound. Cell alkylation data are presented below in Table 3.

Sequence of K-Ras G12C (P01116 other isoform, or with tags, fused parts or gaps G12C): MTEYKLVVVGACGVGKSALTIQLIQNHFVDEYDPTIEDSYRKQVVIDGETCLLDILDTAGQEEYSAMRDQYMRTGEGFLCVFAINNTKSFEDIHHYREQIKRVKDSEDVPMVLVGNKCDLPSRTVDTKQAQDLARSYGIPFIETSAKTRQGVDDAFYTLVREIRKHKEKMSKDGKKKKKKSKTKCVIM

SMILES	EC50
C=CC(=O)N1CCN(c2ncnc3cc(-c4nc(N)ccc4C(F)F)c(Cl)cc23)CC1 [Example 41, 1-(4-[7-[6-amino-3-(difluoromethyl)pyridin-2-yl]-6-chloroquinazolin-4-yl]piperazin-1-yl)prop-2-en-1-one]	16000 nM
C=CC(=O)N1CCN(c2ncnc3cc(-c4nc(N)cc(C)c4C(F)(F)F)c(Cl)cc23)CC1 [Example 44, 1-(4-[7-[6-amino-4-methyl-3-(trifluoromethyl)pyridin-2-yl]-6-chloroquinazolin-4-yl]piperazin-1-yl)prop-2-en-1-one]	62 nM
C=CC(=O)N1CCN(c2nc(NCCN(C)C)nc3cc(-c4nc(N)ccc4C(F)(F)F)c(Cl)cc23)CC1 [Example 45, 1-(4-[7-[6-amino-3-(trifluoromethyl)pyridin-2-yl]-6-chloro-2-[[2-(dimethylamino)ethyl]amino]quinazolin-4-yl]piperazin-1-yl)prop-2-en-1-one]	2400 nM
C=C(F)C(=O)N1CCN(c2ncnc3cc(-c4nc(N)ccc4C(F)(F)F)c(Cl)cc23)C[C@@H]1C#N [Example 46b, (2R)-4-[7-[6-amino-3-(trifluoromethyl)pyridin-2-yl]-6-chloroquinazolin-4-yl]-1-(2-fluoroprop-2-enoyl)piperazine-2-carbonitrile]	270 nM
C=CC(=O)N1CCN(c2ncnc3cc(-c4nc(N)ccc4C4CC4)c(OC)cc23)CC1 [Example 47, 1-[4-[7-(6-amino-3-cyclopropylpyridin-2-yl)-6-methoxyquinazolin-4-yl]piperazin-1-yl]prop-2-en-1-one]	3900 nM
C=CC(=O)N1CCN(c2ncnc3cc(-c4nc(N)cc5ccc(F)cc45)c(Cl)cc23)CC1 [Example 49, 1-[4-[7-(3-amino-7-fluoroisoquinoline-1-yl)-6-chloroquinazolin-4-yl]piperazin-1-yl]prop-2-en-1-one]	250 nM
C=CC(=O)N1CC(c2ncnc3cc(-c4nc(N)ccc4C(F)(F)F)c(Cl)cc23)C1 [Example 50, 1-(3-[7-[6-amino-3-(trifluoromethyl)pyridin-2-yl]-6-chloroquinazolin-4-yl]azetidin-1-yl)prop-2-en-1-one]	5300 nM
C=CC(=O)N1CCN(c2ncnc3cc(-c4nc(N)ccc4CC(F)(F)F)c(Cl)cc23)CC1 [Example 51, 1-[4-[7-[6-amino-3-(2,2,2-trifluoroethyl)-2-pyridyl]-6-chloro-quinazolin-4-yl]piperazin-1-yl]prop-2-en-1-one]	2800 nM
C=CC(=O)N1CCN(c2ncnc3cc(-c4nc(N)cc(CC)c4C(F)(F)F)c(Cl)cc23)CC1 [Example 52, 1-[4-[7-[6-amino-4-ethyl-3-(trifluoromethyl)-2-pyridyl]-6-chloro-quinazolin-4-yl]piperazin-1-yl]prop-2-en-1-one]	86 nM
C=CC(=O)N1CCN(c2ncnc3cc(-c4nc(NC)ccc4C(F)(F)F)c(Cl)cc23)CC1 [Example 53, 1-(4-[6-chloro-7-[6-(methylamino)-3-(trifluoromethyl)pyridin-2-yl]quinazolin-4-yl]piperazin-1-yl)prop-2-en-1-one]	3400 nM
C=CC(=O)N1CCN(c2ncnc3cc(-c4nc(N)ccc4C(F)(F)F)c(Cl)cc23)[C@@H](C)C1 [Example 54, 1-[(3S)-4-[7-[6-amino-3-(trifluoromethyl)pyridin-2-yl]-6-chloroquinazolin-4-yl]-3-methylpiperazin-1-yl]prop-2-en-1-one]	140 nM
C=C(F)C(=O)N1CCN(c2nc(OC[C@@H]3CCCN3C)nc3cc(-c4nc(N)cc(C)c4C(F)(F)F)c(Cl)cc23)CC1CC#N (stereo partly drawn) [Example 55, 2-[4-[7-[6-amino-4-methyl-3-(trifluoromethyl)-2-pyridyl]-6-chloro-2-[[(2S)-1-methylpyrrolidin-2-yl]methoxy]quinazolin-4-yl]-1-(2-fluoroprop-2-enoyl)piperazin-2-yl]acetonitrile]	26 nM
C=C(F)C(=O)N1CCN(c2nc(OC[C@@H]3C[C@@H](F)CN3C)nc3cc(-c4nc(N)cc(C)c4C(F)(F)F)c(Cl)cc23)CC1CC#N (stereo partly drawn) [Example 56, 2-[4-[7-[6-amino-4-methyl-3-(trifluoromethyl)-2-pyridyl]-6-chloro-2-[[(2S,4R)-4-fluoro-1-methyl-pyrrolidin-2-yl]methoxy]quinazolin-4-yl]-1-(2-fluoroprop-2-enoyl)piperazin-2-yl]acetonitrile]	26 nM
C=C(F)C(=O)N1CCN(c2nc(OC[C@@H]3CCCN3C)nc3cc(-c4nc(N)cc(C)c4C(F)(F)F)c(Cl)cc23)CC1CF (stereo partly drawn) [Example 57, 1-[4-[7-[6-amino-4-methyl-3-(trifluoromethyl)-2-pyridyl]-6-chloro-2-[[(2S)-1-methylpyrrolidin-2-yl]methoxy]quinazolin-4-yl]-2-(fluoromethyl)piperazin-1-yl]-2-fluoro-prop-2-en-1-one]	230 nM
C=C(F)C(=O)N1CC(C)N(c2nc(OC[C@@H]3C[C@@H](F)CN3C)nc3cc(-c4nc(N)cc(C)c4C(F)(F)F)c(Cl)cc23)C[C@H]1CC#N (stereo partly drawn) [Example 58, 2-[(2R)-4-[7-[6-amino-4-methyl-3-(trifluoromethyl)-2-pyridyl]-6-chloro-2-[[(2S,4R)-4-fluoro-1-methyl-pyrrolidin-2-yl]methoxy]quinazolin-4-yl]-1-(2-fluoroprop-2-enoyl)-5-methyl-piperazin-2-yl]acetonitrile]	33 nM
C=CC(=O)N1C[C@H](C)N(c2ncnc3cc(-c4nc(N)cc(C)c4C(F)(F)F)c(Cl)cc23)[C@@H](C)C1 [Example 60, 1-[(3S,5S)-4-[7-[6-amino-4-methyl-3-(trifluoromethyl)-2-pyridyl]-6-chloro-quinazolin-4-yl]-3,5-dimethyl-piperazin-1-yl]prop-2-en-1-one]	72 nM
C=CC(=O)N1CCN(c2nc(OC3CCCC3N(C)C)nc3cc(-c4nc(N)cc(C)c4C(F)(F)F)c(Cl)cc23)[C@@H](C)C1 (stereo partly drawn) [Example 66, 1-[(3S)-4-[7-[6-amino-4-methyl-3-(trifluoromethyl)-2-pyridyl]-6-chloro-2-[2-(dimethylamino)cyclopentoxy]quinazolin-4-yl]-3-methyl-piperazin-1-yl]prop-2-en-1-one]	28 nM
C=CC(=O)N1CCN(c2nc(OC[C@@H]3CCC4(CC4)N3C)nc3cc(-c4nc(N)ccc4C(F)(F)F)c(Cl)cc23)CC1 [Example 72, (S)-1-(4-(7-(6-amino-3-(trifluoromethyl)pyridin-2-yl)-6-chloro-2-((4-methyl-4-azaspiro[2.4]-heptan-5-yl)methoxy)quinazolin-4-yl)piperazin-1-yl)prop-2-en-1-one]	55 nM
C=CC(=O)N1CCN(c2nc(OCC3(C)CC(F)(F)CN3C)nc3cc(-c4nc(N)ccc4C(F)(F)F)c(Cl)cc23)CC1 (stereo not shown) [Example 73, 1-(4-(7-(6-amino-3-(trifluoromethyl)pyridin-2-yl)-6-chloro-2-((4,4-difluoro-1,2-dimethylpyrrolidin-2-yl)methoxy)quinazolin-4-yl)piperazin-1-yl)prop-2-en-1-one]	110 nM
C=CC(=O)N1CCN(c2nc(OC(C)(C)[C@@H]3CCCN3C)nc3cc(-c4nc(N)ccc4C(F)(F)F)c(Cl)cc23)CC1 [Example 74, 1-[4-[7-[6-amino-3-(trifluoromethyl)-2-pyridyl]-6-chloro-2-[1-methyl-1-[(2S)-1-methylpyrrolidin-2-yl]ethoxy]quinazolin-4-yl]piperazin-1-yl]prop-2-en-1-one]	110 nM
C=CC(=O)N1CCN(c2nc(OCCN3CC(CF)C3)nc3cc(-c4nc(N)ccc4C(F)(F)F)c(Cl)cc23)CC1 [Example 76, 1-(4-(7-(6-amino-3-(trifluoromethyl)pyridin-2-yl)-6-chloro-2-(2-(3-(fluoromethyl)azetidin-1-yl)ethoxy)quinazolin-4-yl)piperazin-1-yl)prop-2-en-1-one]	140 nM
C=CC(=O)N1CCN(c2nc(OC[C@@H]3[C@@H](F)CCN3C)nc3cc(-c4nc(N)ccc4C(F)(F)F)c(Cl)cc23)CC1 [Example 77, 1-[4-[7-[6-amino-3-(trifluoromethyl)-2-pyridyl]-6-chloro-2-[[(2R,3S)-3-fluoro-1-methyl-pyrrolidin-2-yl]methoxy]quinazolin-4-yl]piperazin-1-yl]prop-2-en-1-one]	25 nM
C=CC(=O)N1CCN(c2nc(OC[C@@H]3[C@H]4C[C@H]4CN3C)nc3cc(-c4nc(N)ccc4C(F)(F)F)c(Cl)cc23)CC1 [Example 78a, 1-(4-(7-(6-amino-3-(trifluoromethyl)pyridin-2-yl)-6-chloro-2-(((1S,2S,5R)-3-methyl-3-azabicyclo[3.1.0]hexan-2-yl)methoxy)quinazolin-4-yl)piperazin-1-yl)prop-2-en-1-one]	56 nM
C=CC(=O)N1CCN(c2nc(OC[C@@H]3[C@@H]4C[C@@H]4CN3C)nc3cc(-c4nc(N)ccc4C(F)(F)F)c(Cl)cc23)CC1 [Example 78b, 1-(4-(7-(6-amino-3-(trifluoromethyl)pyridin-2-yl)-6-chloro-2-(((1R,2S,5S)-3-methyl-3-azabicyclo[3.1.0]hexan-2-yl)methoxy)quinazolin-4-yl)piperazin-1-yl)prop-2-en-1-one]	40 nM
C=CC(=O)N1CCN(c2nc(OCC3CCC(COC)N3C)nc3cc(-c4nc(N)ccc4C(F)(F)F)c(Cl)cc23)CC1 (stereo not shown) [Example 80, 1-(4-(7-(6-amino-3-(trifluoromethyl)pyridin-2-yl)-6-chloro-2-((5-(methoxymethyl)-1-methylpyrrolidin-2-yl)methoxy)quinazolin-4-yl)piperazin-1-yl)prop-2-en-1-one]	71 nM

Source: patent US11236068B2, “Fused ring compounds” (Genentech, Inc., priority 2018, dated 2022)
